O=Cc1ccc2c(c1)OCO2
solubility (mole fraction)
Conditions	in acetone	in chloroform	in ethanol	in isopropanol	in water
273.15 K	0.0521	0.427	0.0056	0.0174	0.000118
278.15 K	0.0655	0.477	0.0143	0.0227	0.000153
283.15 K	0.0876	0.531	0.0396	0.0332	0.00022
288.15 K	0.118	0.598	0.0697	0.0461	0.000277
293.15 K	0.155	0.693	0.123	0.0753	0.000393

From BigSolDB 2.1
